Test results reported in patent US12358918B2, “Aryl hydrocarbon receptor (AHR) activator compounds as cancer therapeutics” (THE BROAD INSTITUTE, INC., priority 2018, dated 2025).
Where two headings read alike, the source gives them in different places.

Assays:
[1] = tested on: ZR-75-1 breast cancer cells; assay: Synergy/antagonism testing; format: cell-based; settings: co-treatment with CGS-15943, 120H; FIG. 14
Experimental: 1000 cells per well were seeded in 384 well clear bottom tissue culture plates and incubated overnight at 37° C. and 4% CO2. The following day, compounds were dispensed in a combination grid format using the Tecan Digital Dispenser. Plates were incubated for 5 days and then viability was assayed using CellTiter-Glo® Cellular Viability Assay. Analysis and Synergy plots were generated using the publicly available Combenefit software package.
AHR has been previously described to bind a range of endogenous and exogenous aromatic ligands (Denison et al. Tox. Sci. 2004, see Table 2), resulting in the formation of a nuclear heterodimer with ARNT. The dimer then binds dioxin-responsive elements and drives gene expression, after nuclear translocation. AHR has been described to bind a wide range of aromatic substrates including agonists, antagonists, and modulators.

[2] = tested on: MDA-MB-468 and ZR51 breast cancer and JHH7 liver cancer cell lines; assay: 5 day cytotoxicity, control cells vs sgRNA knock out of AHR; settings: cytotoxicity in control cells compared with AHR sgRNA knock out cells; FIGS. 23 and 24
[3] = tested on: MDA-MB-231 breast cancer cell lines; assay: cytotoxicity, control cells vs cells overexpressing CYP1A1; format: cell-based
Description: The dependence of each compound's cytotoxic effects upon CYP1A1 was also examined, via screening of MDA-MB-231 breast cancer cell lines for cytotoxic response. The CYP1A1-dependence of the cytotoxic response of to each tested compound was specifically determined by comparing the cytotoxicity of each compound administered to control cells with that of the compound administered to corresponding cells that overexpressed CYP1A1. […]

578 cancer cell lines = assay: PRISM multiplexed cellular viability screening; format: cell-based; settings: relation to FOXA1 / FOXA1 target expression across cell lines
Experimental: The instant discovery was made using large-scale multiplex profiling of existing drugs against 578 cancer cell lines, employing a PRISM multiplexed cellular viability assay.
Parental cell lines were obtained from the Cancer Cell Line Encyclopedia (CCLE) project (1). PRISM cell line barcoding, pooling, and screening was performed as previously described with several improvements to the original method (2). First, the lentiviral vector was modified to encode the unique barcode identifier at the end of the puromycin resistance gene. This enables barcodes to be detected using a variant of the mRNA capture and Luminex detection method developed for the L1000 gene expression assay (3). Second, a set of ten inert barcodes were spiked-in to each well of each plate after cell lysis to control for variation in PCR amplification as detailed below.
Luminex technology produced .Ixb files containing data for each Luminex bead observed during detection. These .Ixb files were processed to compute Median Fluorescence Intensity (MFI) values, calculated as the median of the values obtained for all beads corresponding to a single PRISM barcode.
MFI values were log-transformed (log MFI) and used to perform basic quality control. To detect probable screening artifacts, log MFI values were centered to the median log MFI for each cell line on each plate in order to put the measurements from each cell line on the same scale. For each well on each plate, the median of these centered values was then standardized according to the global median and global MAD across all plate wells in the same position. Data from wells with a standardized score of greater than 5 or less than −5 were excluded from all further processing steps.
For each cell line on each plate, the distribution of MFI values observed for the DMSO-treated negative controls was compared to that of the positive controls using a robust form of the Strictly Standardized Mean Difference (SSMD*)′. Specifically, SSMD* was calculated as: […]
Data corresponding to SSMD values less than 2 were removed before calculating cell viability.
The data in the instant disclosure were produced according to two different screening protocols. In the PR500 protocol, ten inert barcodes were spiked-in to each well of each plate after cell lysis. For data produced using the PR500 protocol, normalized MFI (nMFI) values were computed by taking the ratio of each MFI value against the median of the inert barcodes within each well. […]
Cell viability was calculated as the ratio of nMFI to the median of the nMFI from the DMSO-treated negative controls for each cell line on each plate. […] The final viability values were calculated as the median of the batch-corrected cell viabilities from biological replicates for each cell line, compound and dose. […]

A3 receptors = molecular target: T1, A3 receptors (Homo sapiens, UniProt P0DMS8); settings: previously characterized; cited from earlier work
T1 sequence (P0DMS8 1-318): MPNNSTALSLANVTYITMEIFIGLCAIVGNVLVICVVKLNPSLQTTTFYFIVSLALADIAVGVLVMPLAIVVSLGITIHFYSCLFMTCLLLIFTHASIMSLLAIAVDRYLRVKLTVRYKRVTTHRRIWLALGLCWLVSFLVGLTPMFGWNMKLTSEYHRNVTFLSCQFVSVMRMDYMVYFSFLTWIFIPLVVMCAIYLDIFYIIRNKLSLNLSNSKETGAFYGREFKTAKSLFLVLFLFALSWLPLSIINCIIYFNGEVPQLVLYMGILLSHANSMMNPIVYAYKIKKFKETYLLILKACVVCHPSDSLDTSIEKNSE

[4] = tested on: MDA-MB-468 and ZR51 breast cancer and JHH7 liver cancer cell lines
[5] = tested on: Twelve different breast cancer cell lines; assay: adenosine receptor antagonists and agonists dosed on twelve breast cancer cell lines; format: cell-based; settings: 32 adenosine receptor antagonists/agonists compared; FIG. 6B
[6] = tested on: ZR75, MDA-MB-468 and HCC1395 cell lines; assay: cytotoxicity of CGS-15943 analogs in sensitive and resistant cell lines; format: cell-based; settings: IC50 tables of FIGS. 8A to 8D
Description: (§1) Biological replicates were averaged and normalized to vehicle control. Dose curves were generated using Graphpad Prism.

[7] = molecular target: T2, recombinant human Adenosine A2B (FAST-003C) receptor (Homo sapiens, UniProt P29275); assay: cAMP HTRF assay, Adenosine A2B receptor, antagonist mode; set-up: inhibition: dose or concentration left out as unconfirmed; settings: for inhibition: HEK293, read-out: % Inhibition Average at maximal concentration; for Hill Coefficient: antagonist mode dose-response fit
T2 sequence (P29275 1-332): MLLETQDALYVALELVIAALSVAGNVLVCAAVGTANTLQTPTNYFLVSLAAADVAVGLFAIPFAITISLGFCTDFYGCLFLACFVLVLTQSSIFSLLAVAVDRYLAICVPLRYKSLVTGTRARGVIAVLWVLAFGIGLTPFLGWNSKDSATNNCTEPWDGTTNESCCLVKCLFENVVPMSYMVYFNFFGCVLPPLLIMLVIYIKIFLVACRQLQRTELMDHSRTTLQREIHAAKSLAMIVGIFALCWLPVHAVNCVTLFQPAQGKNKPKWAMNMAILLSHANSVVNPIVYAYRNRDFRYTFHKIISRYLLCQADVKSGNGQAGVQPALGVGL

[8] = molecular target: recombinant human Adenosine A2A (FAST-002C) receptor (Homo sapiens, UniProt P29274); assay: cAMP HTRF assay, Adenosine A2A receptor, antagonist mode; format: cell-based
recombinant human Adenosine A2A (FAST-002C) receptor, sequence (P29274 whole entry): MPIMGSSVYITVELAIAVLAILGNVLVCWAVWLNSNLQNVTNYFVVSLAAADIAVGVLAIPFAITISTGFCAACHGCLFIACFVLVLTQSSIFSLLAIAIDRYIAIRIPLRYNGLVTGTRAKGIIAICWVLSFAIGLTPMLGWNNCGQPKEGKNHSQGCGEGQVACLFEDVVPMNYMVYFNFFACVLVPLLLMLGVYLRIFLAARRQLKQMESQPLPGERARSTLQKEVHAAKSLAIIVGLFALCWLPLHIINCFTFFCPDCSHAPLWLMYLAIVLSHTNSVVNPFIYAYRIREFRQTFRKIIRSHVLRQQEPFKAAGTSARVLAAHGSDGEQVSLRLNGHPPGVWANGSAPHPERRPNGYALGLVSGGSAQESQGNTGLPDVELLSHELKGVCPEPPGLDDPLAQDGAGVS

[9] = molecular target: T3, recombinant human Adenosine A3 (FAST-004C) receptor (Homo sapiens, UniProt P0DMS8); assay: cAMP HTRF assay, Adenosine A3 receptor, antagonist mode; format: cell-based
T3 sequence (P0DMS8 1-318): T1 sequence (P0DMS8 1-318)

[10] = molecular target: T4, recombinant human Adenosine A1 (FAST-001C) receptor (Homo sapiens, UniProt P30542); assay: cAMP HTRF assay, Adenosine A1 receptor, antagonist mode; set-up: inhibition: dose or concentration left out as unconfirmed; settings: for inhibition: CHO-K1, read-out: % Inhibition Average at maximal concentration; for Hill Coefficient: antagonist mode dose-response fit
T4 sequence (P30542 1-326): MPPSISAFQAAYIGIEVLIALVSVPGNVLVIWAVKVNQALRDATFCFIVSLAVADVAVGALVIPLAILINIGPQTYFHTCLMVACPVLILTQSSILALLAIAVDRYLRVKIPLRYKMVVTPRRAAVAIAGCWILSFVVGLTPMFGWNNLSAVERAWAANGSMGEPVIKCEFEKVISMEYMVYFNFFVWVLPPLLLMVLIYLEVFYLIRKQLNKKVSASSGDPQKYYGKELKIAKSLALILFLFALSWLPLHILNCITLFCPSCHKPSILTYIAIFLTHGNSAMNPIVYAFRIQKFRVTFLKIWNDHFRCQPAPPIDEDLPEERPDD

[11] = tested on: MDA-MB-468 breast cancer cells; assay: Western immunoblot of treated cells over 24 hours; format: cell-based; settings: FIG. 18
Experimental: Adherent cells were washed once with cold 1×PBS (Corning #01018002) and lysed with RIPA buffer (Sigma #R0278) supplemented by protease and phosphatase inhibitors (Sigma). Protein content was quantified using the DC Protein Assay (BioRad #5000111). Samples were reduced with (loading buffer) and boiled at 95° C. before being resolved by SDS gel electrophoresis on 4-20% Tris/glycine gels (Invitrogen). Proteins were transferred using the IBlot2 (Thermo #IB21001) onto the iBlot™ 2 nitrocellulose Transfer Stacks (Thermo #IB23001). The membranes were then blocked in Odyssey Blocking Buffer (Li-COR #927-40000) for one hour, and then probed overnight with primary antibodies diluted in blocking buffer. The following day, membranes were washed 3×5 mins with 1×TBST and then probed with LiCOR Infrared secondary antibodies for 1 hour at room temperature. Membranes were washed an additional 3×5 mins in 1×TBST and then imaged using the LiCOR Imager. […]

[12] = tested on: MDA-MB-468 breast cancer cells possessing AHR knockout; assay: dose response in AHR knockout (AHR_sg3) cells; format: cell-based; settings: FIG. 17
Description: as §1

[13] = HEK293, read-out: % Inhibition Average at maximal concentration
[14] = antagonist mode dose-response fit
[15] = antagonist mode; HEK293; reference agonist NECA
[16] = CHO-K1; read-out: % Inhibition Average at maximal concentration

## COc1ccc(-c2cc(=O)c3cc(OC)ccc3o2)c(OC)c1
[1]
  interaction with CGS-15943 (3D Synergy plot): pronounced antagonism to CGS-15943

## Cc1ccc2cc3c(ccc4ccccc43)c3c2c1CC3 [3-Methylcholanthrene, reference compound]
[2]
  AHR-dependence of the cytotoxic response: dependence upon AHR
[3]; control MDA-MB-231 compared with cells overexpressing CYP1A1
  CYP1A1-dependence of the cytotoxic response: CYP1A1-dependent cytotoxic

## Nc1nc2c(cnn2CCc2ccccc2)c2nc(-c3ccco3)nn12 [SCH-58261]
578 cancer cell lines
  cell killing profile in PRISM: cell killing profile specific for such FOXA1-dependent cancer cell lines
A3 receptors
  Ki: > 10000 nM
[4]
  AHR-dependence of the cytotoxic response: dependence upon AHR
[3]
  CYP1A1-dependence of the cytotoxic response: CYP1A1-dependent cytotoxic
[5]
  cytotoxicity to breast cancer cell lines: cytotoxic

## Nc1nc2c(cnn2CCc2ccccc2)c2nc(-c3ccco3)nn12 [BRD-K81225797-001-02-3]
[6]
  killing of sensitive (ZR75, MDA-MB-468) versus resistant (HCC1395) cell lines: selective killing

## CN(C)c1nc2ccc(Cl)cc2c2nc(-c3ccco3)nn12 [BRO-020, 9-chloro-2-(furan-2-yl)-N,N-dimethyl-[1,2,4]triazolo[1,5-c]quinazolin-5-amine]
[7]
  inhibition: 9.09%
[8]; [13]
  inhibition at 10 µM: 18.4%
[9]; CHO-K1, read-out: % Inhibition Average at maximal concentration
  inhibition at 10 µM: 8.55%
[10]
  IC50: 72.4 nM
  inhibition: 81.1%
  Hill Coefficient: 0.83

## C=C1Nc2ccccc2-c2nc(-c3ccco3)nn21
[7]
  IC50: 2140 nM
  inhibition: 109%
  Hill Coefficient: 1.80
[8]; HEK293; read-out: % Inhibition Average at maximal concentration
  inhibition at 10 µM: 99.2%
[8]; [14]
  Hill Coefficient: 1.72
[8]; [15]
  IC50: 1330 nM
[4]
  AHR-dependence of the cytotoxic response: dependence upon AHR
[9]; [16]
  inhibition at 10 µM: 31%
[3]
  CYP1A1-dependence of the cytotoxic response: CYP1A1-dependent cytotoxic
[10]
  IC50: 493 nM
  inhibition: 96.1%
  Hill Coefficient: 1.17

## O=C(Cc1ccccc1)Nc1nc2ccc(Cl)cc2c2nc(-c3ccco3)nn12 [MRS-1220, reference compound]
578 cancer cell lines
  cell killing profile in PRISM: cell killing profile specific for such FOXA1-dependent cancer cell lines
[4]
  AHR-dependence of the cytotoxic response: dependence upon AHR
[3]
  CYP1A1-dependence of the cytotoxic response: CYP1A1-dependent cytotoxic
[5]
  cytotoxicity to breast cancer cell lines: cytotoxic

## Cc1cc(-c2nc3cc(F)ccc3s2)ccc1NC(=O)[C@@H](N)CCCCN.Cl.Cl [Phortress]
578 cancer cell lines
  cell killing profile in PRISM: more broadly cytotoxic
[11]; 24 hour time course
  CYP1A1 expression: induced CYP1A1 expression
  FOXA1 levels: maintenance of FOXA1 levels
[11]; within 24 hours
  DNA double stranded breaks (pH2A.X) and PARP cleavage: induced DNA double stranded breaks
[12]; 10 μM
  rescue of killing by AHR knockout: AHR knockout did not rescue cells from Phortress killing
[12]; AHR knockout cells
  cytotoxicity at high doses: non-specific cytotoxicity at high doses

## Cc1ccc(-c2nc3c4cc(Cl)ccc4nc(N)n3n2)o1 [BRO-013]
[7]
  IC50: 116 nM
  inhibition: 110%
  Hill Coefficient: 1.76
[8]; [13]
  inhibition at 10 µM: 112%
[8]; [14]
  Hill Coefficient: 1.39
[8]; [15]
  IC50: 27.2 nM
[4]
  AHR-dependence of the cytotoxic response: dependence upon AHR
[9]; [16]
  inhibition at 10 µM: 74.2%
[9]; [14]
  Hill Coefficient: 1.04
[9]; antagonist mode; CHO-K1; reference agonist IB-MECA
  IC50: 730 nM
[3]
  CYP1A1-dependence of the cytotoxic response: CYP1A1-dependent cytotoxic
[10]
  IC50: 7.94 nM
  inhibition: 107%
  Hill Coefficient: 1.18
